We go through one compound from paper PMC8632694 (Frontiers in Pharmacology, 2021).

Data set [1] in a line: Safety and tolerability: treatment-emergent adverse events by intervention. The data set is classed as in vivo, human. The note with it: neutropenia in intervention T; blood creatine phosphokinase increased in intervention R. As for the experimental part:
Safety was assessed based on symptom reports, physical examinations, vital signs, 12-lead ECGs, and clinical laboratory tests (hematology, clinical chemistry, and urinalysis).

For data set [2] the following is noted: when absorbed through the intestine; ref Lennernäs, 2003; cited from earlier work.
A short description of data set [3]: Steady-state plasma pharmacokinetics of atorvastatin, 2-hydroxyatorvastatin and atorvastatin lactone after atorvastatin 40 mg once daily for 7 days, alone or co-administered with tegoprazan 50 mg or vonoprazan 20 mg. Particulars: for Css,max / Tss,max: N = 28; for Css,max: mean ± SD; for Tss,max: plasma, median (minimum-maximum).
Experimental: Among three interventions, subjects received intervention R twice and received intervention T and V once each. Subjects were allocated to one of the four sequences: T-R-V-R, R-T-R-V, R-V-R-T, and V-R-T-R (Figure 1). There were washout periods of 7–9 days between each intervention. Furthermore, this study was carried out in three groups since entire subjects could not be studied simultaneously.
Subjects had scheduled visits on the morning of Days 1–4 for dosing and then were admitted to the Clinical Trial Center of Samsung Medical Center on the evening of Day 4. Subjects received the study drug orally with water of 150 ml after an overnight fast of at least 10 h on Days 5–7 and were required to fast for an additional 4 h postdose on Day 7.
Blood samples were centrifuged at approximately 1,800 g for 10 min at 4°C, and then the plasma samples were stored at less than -70°C until the assays.
The correction coefficients (r2) were greater than 0.99 over these concentration ranges. The precision and accuracy for mean within-run data and mean between-run data of all analytes were determined using the percentage of relative SD (%RSD) and the percentage of deviation of the mean from theoretical (%DMT).

As to `CC(C)c1c(C(=O)Nc2ccccc2)c(-c2ccccc2)c(-c2ccc(F)cc2)n1CC[C@@H](O)C[C@@H](O)CC(=O)O` [Atorvastatin, atorvastatin], the “subjects who discontinued the study due to AEs” value in data set [1] was 1. Besides, in data set [2], the “fraction of orally administered dose lost in the gut” value is 76%. Further, the “Css,max, geometric least squares mean” value is 32.4 ng/mL in data set [3] (Atorvastatin alone (N = 28 for each intervention), comparison with tegoprazan); 32.4 ng/mL in data set [3] (Atorvastatin alone (N = 28 for each intervention), comparison with vonoprazan); 35.4 ng/mL in data set [3] (With Tegoprazan (N = 28)); 37.9 ng/mL in data set [3] (With Vonoprazan (N = 28)). The “Css,max” value in data set [3] (Reference 1: first intervention, atorvastatin 40 mg alone 7 days) was 37.21 ± 19.65 ng/mL; in data set [3] (Reference 2: second intervention, atorvastatin 40 mg alone 7 days) it was 37.37 ± 22.81 ng/mL; in data set [3] (atorvastatin 40 mg co-administered with tegoprazan 50 mg 7 days), 40.75 ± 21.52 ng/mL; in data set [3] (atorvastatin 40 mg co-administered with vonoprazan 20 mg 7 days) it was 42.71 ± 25.76 ng/mL. In addition, the “Tss,max” value in data set [3] (Reference 1: first intervention, atorvastatin 40 mg alone once daily 7 days) is 0.75 (0.50–6.00) h; in data set [3] (Reference 2: second intervention, atorvastatin 40 mg alone once daily 7 days) it was 0.75 (0.50–3.00) h; in data set [3] (atorvastatin 40 mg co-administered with tegoprazan 50 mg once daily 7 days) it was 1.25 (0.50–3.00) h; in data set [3] (atorvastatin 40 mg co-administered with vonoprazan 20 mg once daily 7 days), 1.50 (0.50–4.00) h. Besides, the “Increase of Css,max” value is 9% in data set [3] (atorvastatin co-administered with tegoprazan, not statistically significant) and 17% in data set [3] (atorvastatin co-administered with vonoprazan compared to atorvastatin alone). Moreover, the “Css,max, GMR (90% CI)” value in data set [3] (ratio of atorvastatin co-administered with tegoprazan to administered alone) is on record as 1.09 (0.97–1.23). Further, the “within-subject CV of Css,max” value in data set [3] (this study, multiple doses for 7 days (data not shown)) worked out at 33.6%.
